Measurements from patent US20230416232A1, “PYRIMIDINE COMPOUNDS, COMPOSITIONS, AND MEDICINAL APPLICATIONS THEREOF” (Blueprint Medicines Corporation, priority 2020, published 2023).
Structures can show the parent of a compound that is named as a salt.

How the values were obtained:
Type in all cases: cell-based
[1] = target: EGFR (A767_dupASV) expressing Ba/F3 stable cell line (Homo sapiens, UniProt P00533, DUP767-769, cells depend on it); experiment: Cellular proliferation (Alamar Blue) assay, EGFR (A767_dupASV) Ba/F3; conditions: 72 hr, read-out: A767 IC50
EGFR (A767_dupASV) expressing Ba/F3 stable cell line, sequence (P00533 with tags, fused parts or gaps DUP767-769): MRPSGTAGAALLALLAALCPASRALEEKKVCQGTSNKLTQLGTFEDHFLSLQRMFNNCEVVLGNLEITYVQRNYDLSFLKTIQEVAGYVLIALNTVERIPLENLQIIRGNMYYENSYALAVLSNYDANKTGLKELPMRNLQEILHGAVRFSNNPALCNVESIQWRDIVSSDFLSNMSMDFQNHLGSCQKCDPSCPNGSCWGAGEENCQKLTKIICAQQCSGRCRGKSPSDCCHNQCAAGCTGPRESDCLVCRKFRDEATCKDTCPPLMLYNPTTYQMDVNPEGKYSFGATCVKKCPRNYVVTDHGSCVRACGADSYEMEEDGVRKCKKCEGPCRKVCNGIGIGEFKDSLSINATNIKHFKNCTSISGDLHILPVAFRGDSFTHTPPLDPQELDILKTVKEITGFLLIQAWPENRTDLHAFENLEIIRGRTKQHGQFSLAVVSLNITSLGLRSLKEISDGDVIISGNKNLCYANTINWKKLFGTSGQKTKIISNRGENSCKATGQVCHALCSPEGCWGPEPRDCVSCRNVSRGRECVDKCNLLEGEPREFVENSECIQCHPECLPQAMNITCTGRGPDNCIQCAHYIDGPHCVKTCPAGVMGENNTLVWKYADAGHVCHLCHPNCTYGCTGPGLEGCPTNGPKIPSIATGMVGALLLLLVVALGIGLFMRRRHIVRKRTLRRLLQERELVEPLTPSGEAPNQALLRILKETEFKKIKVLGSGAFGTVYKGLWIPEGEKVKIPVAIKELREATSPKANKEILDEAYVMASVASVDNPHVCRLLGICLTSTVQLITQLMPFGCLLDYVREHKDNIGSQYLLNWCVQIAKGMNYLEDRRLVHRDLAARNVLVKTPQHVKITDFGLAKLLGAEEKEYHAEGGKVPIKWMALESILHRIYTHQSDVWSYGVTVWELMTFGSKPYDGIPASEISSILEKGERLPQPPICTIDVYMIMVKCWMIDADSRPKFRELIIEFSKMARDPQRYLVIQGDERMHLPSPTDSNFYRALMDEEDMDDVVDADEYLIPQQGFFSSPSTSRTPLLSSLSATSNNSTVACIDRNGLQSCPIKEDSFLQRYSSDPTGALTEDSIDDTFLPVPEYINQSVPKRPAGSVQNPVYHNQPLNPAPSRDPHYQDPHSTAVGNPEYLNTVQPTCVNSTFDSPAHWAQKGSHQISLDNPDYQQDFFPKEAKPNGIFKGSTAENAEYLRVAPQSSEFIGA
Protocol: (§1) Cell line details: • 1. EGFR(D770_N771insSVD) expressing Ba/F3 stable cell line • 2. EGFR (A767_dupASV) expressing Ba/F3 stable cell line • 3. A431 cells • 4. EGFR (H773insNPH) expressing Ba/F3 stable cell line • 5. HER2 (A775_G776insYVMA) expressing Ba/F3 stable cell line
(§2) • 1. Seed cells at 5000 for A431 and 15,000 cells for Ba/F3 in 100 μL/well in complete media (for A431: DMEM with 10% FBS and for Ba/F3 cells: RPMI with 10% FBS) in 96-well tissue culture plate. Leave outer wells without cells for background measurements. Incubate at 37 degree Celsius in 5% CO2 humidified incubator for 16-18 hours. • 2. Add 0.025 ml of 5X concentration compound dilution or DMSO control. Final compound concentration range is 10-0.0005 μM prepared in 3-fold serial dilutions. Incubate for 72 hr at 37 degree Celsius in 5% CO2 humidified incubator. • 3. Add 0.0125 ml Alamar Blue™ reagent to each well with multi-channel pipette and tap gently on each side of the plate to mix. Incubate for 3 hours at 37 degree Celsius in 5% CO2 humidified incubator. • 4. […] Data analysis was performed using XLfit 5.5.0.5.

[2] = tested on: A431 cells; experiment: Cellular proliferation (Alamar Blue) assay, A431 cells; conditions: Homo sapiens, A-431, 72 h, A431 cells; 72 hr; Alamar Blue; read-out: A431 IC50
Protocol: as §2

[3] = target: HER2 (A775_G776insYVMA) expressing Ba/F3 stable cell line (Homo sapiens, UniProt P04626, DUP772-775, cells depend on it); experiment: Cellular proliferation (Alamar Blue) assay, HER2 (A775_G776insYVMA) Ba/F3; conditions: HER2 (A775_G776insYVMA) Ba/F3 cells; 72 hr; Alamar Blue; read-out: YVMA IC50
HER2 (A775_G776insYVMA) expressing Ba/F3 stable cell line, sequence (P04626 with tags, fused parts or gaps DUP772-775): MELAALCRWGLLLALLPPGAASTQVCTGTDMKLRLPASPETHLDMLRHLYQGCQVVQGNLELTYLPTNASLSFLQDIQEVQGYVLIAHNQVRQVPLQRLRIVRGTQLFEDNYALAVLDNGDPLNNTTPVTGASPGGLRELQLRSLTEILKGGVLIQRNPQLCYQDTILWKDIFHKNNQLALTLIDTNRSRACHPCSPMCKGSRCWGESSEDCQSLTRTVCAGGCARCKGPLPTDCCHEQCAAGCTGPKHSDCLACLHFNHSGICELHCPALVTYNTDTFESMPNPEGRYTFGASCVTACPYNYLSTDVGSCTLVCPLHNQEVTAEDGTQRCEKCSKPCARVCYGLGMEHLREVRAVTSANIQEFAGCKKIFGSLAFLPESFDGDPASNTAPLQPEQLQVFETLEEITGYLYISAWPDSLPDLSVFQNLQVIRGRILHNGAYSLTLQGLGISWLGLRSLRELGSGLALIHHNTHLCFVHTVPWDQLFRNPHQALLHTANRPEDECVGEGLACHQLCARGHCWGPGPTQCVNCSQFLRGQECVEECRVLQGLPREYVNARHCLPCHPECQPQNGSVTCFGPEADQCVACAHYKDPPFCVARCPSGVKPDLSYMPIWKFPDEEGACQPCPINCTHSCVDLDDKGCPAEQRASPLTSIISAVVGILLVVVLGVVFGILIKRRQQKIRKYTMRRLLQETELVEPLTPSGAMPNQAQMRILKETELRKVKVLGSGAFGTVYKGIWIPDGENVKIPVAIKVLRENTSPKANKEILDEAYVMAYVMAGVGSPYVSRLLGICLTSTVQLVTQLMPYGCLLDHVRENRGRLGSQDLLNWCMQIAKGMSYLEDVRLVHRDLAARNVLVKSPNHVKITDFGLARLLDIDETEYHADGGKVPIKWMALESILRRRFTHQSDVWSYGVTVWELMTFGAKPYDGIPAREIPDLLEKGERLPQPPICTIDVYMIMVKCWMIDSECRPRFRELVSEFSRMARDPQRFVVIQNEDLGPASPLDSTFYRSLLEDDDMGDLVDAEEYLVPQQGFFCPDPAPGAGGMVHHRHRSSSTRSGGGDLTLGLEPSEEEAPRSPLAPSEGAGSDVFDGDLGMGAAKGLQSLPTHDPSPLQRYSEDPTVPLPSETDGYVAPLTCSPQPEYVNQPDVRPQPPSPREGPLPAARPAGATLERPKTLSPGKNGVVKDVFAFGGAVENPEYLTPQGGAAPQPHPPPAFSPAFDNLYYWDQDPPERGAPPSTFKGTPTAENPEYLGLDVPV
Protocol: as §1, §2

[4] = target: EGFR(D770_N771insSVD) expressing Ba/F3 stable cell line (Homo sapiens, UniProt P00533, DUP768-770, cells depend on it); experiment: Cellular proliferation (Alamar Blue) assay, EGFR(D770_N771insSVD) Ba/F3; conditions: 72 hr, read-out: D770 IC50
EGFR(D770_N771insSVD) expressing Ba/F3 stable cell line, sequence (P00533 with tags, fused parts or gaps DUP768-770): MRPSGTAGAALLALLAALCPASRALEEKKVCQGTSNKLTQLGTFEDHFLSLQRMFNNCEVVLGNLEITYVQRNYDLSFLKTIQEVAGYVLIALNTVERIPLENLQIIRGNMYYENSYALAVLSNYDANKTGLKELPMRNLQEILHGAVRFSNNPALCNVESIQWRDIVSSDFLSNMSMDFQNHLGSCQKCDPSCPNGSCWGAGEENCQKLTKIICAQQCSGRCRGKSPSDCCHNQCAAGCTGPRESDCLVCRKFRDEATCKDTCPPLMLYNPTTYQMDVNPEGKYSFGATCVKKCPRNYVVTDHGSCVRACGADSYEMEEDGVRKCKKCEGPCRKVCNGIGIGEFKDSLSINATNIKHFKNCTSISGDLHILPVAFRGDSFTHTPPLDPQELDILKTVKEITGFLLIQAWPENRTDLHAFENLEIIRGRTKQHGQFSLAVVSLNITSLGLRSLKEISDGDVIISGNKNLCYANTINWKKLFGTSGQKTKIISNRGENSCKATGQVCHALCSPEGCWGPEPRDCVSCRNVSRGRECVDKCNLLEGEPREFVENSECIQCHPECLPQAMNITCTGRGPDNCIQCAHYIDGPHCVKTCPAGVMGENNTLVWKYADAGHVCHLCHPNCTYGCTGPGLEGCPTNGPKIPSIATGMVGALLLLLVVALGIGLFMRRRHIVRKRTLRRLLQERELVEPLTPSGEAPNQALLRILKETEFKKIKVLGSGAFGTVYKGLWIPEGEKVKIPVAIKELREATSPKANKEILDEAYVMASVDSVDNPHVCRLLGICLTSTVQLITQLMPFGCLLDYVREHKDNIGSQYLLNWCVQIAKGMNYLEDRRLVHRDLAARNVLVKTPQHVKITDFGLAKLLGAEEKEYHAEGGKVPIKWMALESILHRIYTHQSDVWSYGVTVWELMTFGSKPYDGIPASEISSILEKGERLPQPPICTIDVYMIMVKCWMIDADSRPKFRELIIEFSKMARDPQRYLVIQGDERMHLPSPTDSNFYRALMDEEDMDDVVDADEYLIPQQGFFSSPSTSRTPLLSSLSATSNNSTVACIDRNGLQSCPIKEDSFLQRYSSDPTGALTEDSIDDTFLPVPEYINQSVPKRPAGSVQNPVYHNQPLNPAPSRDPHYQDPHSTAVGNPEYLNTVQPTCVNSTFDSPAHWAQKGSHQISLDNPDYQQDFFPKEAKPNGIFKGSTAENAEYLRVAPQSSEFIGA
Protocol: as §1, §2

GI50 [1]	IC50 [2]	GI50 [3]	GI50 [4]	Structure (SMILES)
61 nM	13 nM	164 nM		C=CC(=O)Nc1ccc(F)c(Nc2nc(Nc3cnn(C)c3)ncc2-c2cc(F)c(C(F)(F)F)c(F)c2)c1 [Compound 20, N-(3-((5-(3,5-difluoro-4-(trifluoromethyl)phenyl)-2-((1-methyl-1H-pyrazol-4-yl)amino)pyrimidin-4-yl)amino)-4-fluorophenyl)acrylamide trifluoroacetate]
11 nM		37 nM		C=CC(=O)Nc1ccc(F)c(Nc2nc(Nc3cnn(C)c3)ncc2-c2cnc(C(F)(F)F)c(F)c2)c1 [Compound 61, N-(4-fluoro-3-((5-(5-fluoro-6-(trifluoromethyl)pyridin-3-yl)-2-((l-methyl-1H-pyrazol-4-yl)amino)pyrimidin-4-yl)amino)phenyl)acrylamide]
			15 nM	O=C(O)C(F)(F)F.[2H]C([2H])([2H])n1cc(Nc2ncc(-c3cnc(F)c(F)c3)c(Nc3cc(NC(=O)C=C)ccc3F)n2)cn1 [Compound 101, N-(3-((5-(5,6-difluoropyridin-3-yl)-2-((1-(methyl-d3)-1H-pyrazol-4-yl)amino)pyrimidin-4-yl)amino)-4-fluorophenyl)acrylamide]
	3130 nM	7340 nM		C=CC(=O)Nc1ccc(F)c(Nc2nc(Nc3cnn(C)c3)ncc2-c2ccc(F)cc2C(F)(F)F)c1 [Compound 107, N-(4-fluoro-3-((5-(4-fluoro-2-(trifluoromethyl)phenyl)-2-((1-methyl-1H-pyrazol-4-yl)amino)pyrimidin-4-yl)amino)phenyl)acrylamide]
	819 nM	5780 nM		C=CC(=O)Nc1ccc(F)c(Nc2nc(Nc3cn(C)nc3Cl)ncc2-c2ccc(OC)c(OC)c2)c1 [Compound 110, N-(3-((2-((3-chloro-1-methyl-1H-pyrazol-4-yl)amino)-5-(3,4-dimethoxyphenyl)pyrimidin-4-yl)amino)-4-fluorophenyl)acrylamide]
	164 nM	1080 nM		C=CC(=O)Nc1ccc(F)c(Nc2nc(Nc3cnn(C)c3)ncc2-c2ccc3c(c2)OCCO3)c1 [Compound 111, N-(3-((5-(2,3-dihydrobenzo[b][1,4]dioxin-6-yl)-2-((1-methyl-1H-pyrazol-4-yl)amino)pyrimidin-4-yl)amino)-4-fluorophenyl)acrylamide]
	497 nM	923 nM		C=CC(=O)Nc1ccc(F)c(Nc2nc(Nc3cnn(C)c3)ncc2-c2ccc(Br)cc2F)c1 [Compound 112, N-(3-((5-(4-bromo-2-fluorophenyl)-2-((1-methyl-1H-pyrazol-4-yl)amino)pyrimidin-4-yl)amino)-4-fluorophenyl)acrylamide]
	77 nM	4570 nM		C=CC(=O)Nc1ccc(F)c(Nc2nc(Nc3cnn(C)c3)ncc2-c2ccc3c(c2)OC(C)(C)O3)c1 [Compound 114, N-(3-((5-(2,2-dimethylbenzo[d][1,3]dioxol-5-yl)-2-((1-methyl-1H-pyrazol-4-yl)amino)pyrimidin-4-yl)amino)-4-fluorophenyl)acrylamide]
	3520 nM	> 10000 nM		C=CC(=O)Nc1ccc(F)c(Nc2nc(Nc3cnn(C)c3)ncc2-c2cc(OC)cc(OC)c2)c1 [Compound 116, N-(3-((5-(3,5-dimethoxyphenyl)-2-((1-methyl-1H-pyrazol-4-yl)amino)pyrimidin-4-yl)amino)-4-fluorophenyl)acrylamide]
	215 nM	352 nM		C=CC(=O)Nc1ccc(F)c(Nc2nc(Nc3cnn(C)c3)ncc2-c2ccc(Br)c(C(F)F)c2)c1 [Compound 118, N-(3-((5-(4-bromo-3-(difluoromethyl)phenyl)-2-((1-methyl-1H-pyrazol-4-yl)amino)pyrimidin-4-yl)amino)-4-fluorophenyl)acrylamide]
	1160 nM	5200 nM		C=CC(=O)Nc1ccc(F)c(Nc2nc(Nc3cnn(C)c3)ncc2-c2ccc(Br)c(N(C)C)c2)c1 [Compound 119, N-(3-((5-(4-bromo-3-(dimethylamino)phenyl)-2-((1-methyl-1H-pyrazol-4-yl)amino)pyrimidin-4-yl)amino)-4-fluorophenyl)acrylamide]
	9280 nM	> 10000 nM		C=CC(=O)Nc1ccc(F)c(Nc2nc(Nc3cnn(C)c3)ncc2-c2cc(F)cc(N3CCC3)c2)c1 [Compound 120, N-(3-((5-(3-(azetidin-1-yl)-5-fluorophenyl)-2-((1-methyl-1H-pyrazol-4-yl)amino)pyrimidin-4-yl)amino)-4-fluorophenyl)acrylamide]
	> 10000 nM	> 10000 nM		C=CC(=O)Nc1ccc(F)c(Nc2nc(Nc3cnn(C)c3)ncc2-c2cc(F)cc(N3CCCC3)c2)c1 [Compound 121, N-(4-fluoro-3-((5-(3-fluoro-5-(pyrrolidin-1-yl)phenyl)-2-((1-methyl-1H-pyrazol-4-yl)amino)pyrimidin-4-yl)amino)phenyl)acrylamide]
	290 nM	669 nM		C=CC(=O)Nc1ccc(F)c(Nc2nc(Nc3cnn(C)c3)ncc2-c2ccc(OCc3cccc(F)c3)c(Cl)c2)c1 [Compound 122, N-{3-[(5-{3-chloro-4-[(3-fluorophenyl)methoxy]phenyl}-2-[(1-methyl-1H-pyrazol-4-yl)amino]pyrimidin-4-yl)amino]-4-fluorophenyl}prop-2-enamide]
	> 10000 nM	> 10000 nM		C=CC(=O)Nc1ccc(F)c(Nc2nc(Nc3cnn(C)c3)ncc2-c2cc(F)cc(OC(C)C)c2)c1 [Compound 129, N-(4-fluoro-3-((5-(3-fluoro-5-isopropoxyphenyl)-2-((1-methyl-1H-pyrazol-4-yl)amino)pyrimidin-4-yl)amino)phenyl)acrylamide]
	> 10000 nM	> 10000 nM		C=CC(=O)Nc1ccc(F)c(Nc2nc(Nc3cnn(C)c3)ncc2-c2cc(F)cc(OCC3CC3)c2)c1 [Compound 130, N-(3-((5-(3-(cyclopropylmethoxy)-5-fluorophenyl)-2-((1-methyl-1H-pyrazol-4-yl)amino)pyrimidin-4-yl)amino)-4-fluorophenyl)acrylamide]
	238 nM	453 nM		C=CC(=O)Nc1ccc(F)c(Nc2nc(Nc3cnn(C)c3)ncc2-c2ccc(Br)c(OC)c2)c1 [Compound 134, N-(3-((5-(4-bromo-3-methoxyphenyl)-2-((1-methyl-1H-pyrazol-4-yl)amino)pyrimidin-4-yl)amino)-4-fluorophenyl)acrylamide]
	301 nM	738 nM		Cn1cc(Nc2ncc(-c3ccc(Br)c(F)c3)c(Nc3cc(NC(=O)/C=C/CN4CCCCC4)ccc3F)n2)cn1 [Compound 142, (E)-N-(3-((5-(4-bromo-3-fluorophenyl)-2-((1-methyl-1H-pyrazol-4-yl)amino)pyrimidin-4-yl)amino)-4-fluorophenyl)-4-(piperidin-1-yl)but-2-enamide]
	4880 nM	970 nM		COc1cc(F)cc(-c2cnc(Nc3cnn(C)c3)nc2Nc2cc(NC(=O)/C=C/CN(C)C)ccc2F)c1 [Compound 144, (E)-4-(dimethylamino)-N-(4-fluoro-3-((5-(3-fluoro-5-methoxyphenyl)-2-((1-methyl-1H-pyrazol-4-yl)amino)pyrimidin-4-yl)amino)phenyl)but-2-enamide]
	388 nM	264 nM		[2H]c1ccc(NC(=O)C=C)cc1Nc1nc(Nc2cnn(C)c2)ncc1-c1cc(F)cc(OC)c1 [Compound 145, N-(3-((5-(3-fluoro-5-methoxyphenyl)-2-((1-methyl-1H-pyrazol-4-yl)amino)pyrimidin-4-yl)amino)phenyl-4-d)acrylamide]
	29 nM	45 nM	10 nM	C=CC(=O)Nc1cccc(Nc2nc(Nc3cnn(C)c3)ncc2-c2cc(F)c(F)c(F)c2)c1 [Compound 148, N-(3-((2-((1-methyl-1H-pyrazol-4-yl)amino)-5-(3,4,5-trifluorophenyl)pyrimidin-4-yl)amino)phenyl)acrylamide]
	19 nM	309 nM		C=CC(=O)Nc1ccc(F)c(Nc2nc(Nc3cnn(C)c3)ncc2-c2cc(F)c(N(C)C)c(F)c2)c1 [Compound 156, N-(3-((5-(4-(dimethylamino)-3,5-difluorophenyl)-2-((1-methyl-1H-pyrazol-4-yl)amino)pyrimidin-4-yl)amino)-4-fluorophenyl)acrylamide]
	11 nM	147 nM	36 nM	[2H]C([2H])([2H])n1cc(Nc2ncc(-c3ccc(Br)c(F)c3)c(Nc3cc(NC(=O)C=C)ccc3F)n2)cn1 [Compound 169, N-(3-((5-(4-bromo-3-fluorophenyl)-2-((1-(methyl-d3)-1H-pyrazol-4-yl)amino)pyrimidin-4-yl)amino)-4-fluorophenyl)acrylamide]
